Experiment [1] concerns cholesterol-fed rabbits. As to the kind of experiment: Effect on the development of atherosclerotic lesion in cholesterol-fed rabbits with chronic endothelial injury. The conditions noted are these: for Effect on ECD (in words) / Effect on atheroclerotic area of the femoral lesion (in words): Table 2; for The ratio of Atheroclerotic area: femoral artery, oral for 8 weeks after surgery, control 57.4; for The ratio of Atheroclerotic area / ECD (extracellular lipid deposits): Pravastatin 10 mg/kg, Compound A 5 mg/kg; for ECD (extracellular lipid deposits): right femoral artery sections, Elastica-Masson's stain, oral for 8 weeks, control 15.5. In kind it is in vivo, New Zealand White rabbits. The text has this: Male New Zealand White rabbits (Kitayama Labes, Japan) weighing 1.0-1.5 kg were meal-fed a chow diet (RC-4, Oriental Bioservice, Japan) supplemented with 0.5% cholesterol, 3% peanut oil, and 3% coconut oil diet for a total of 10 weeks.
The dietary regimen consisted of feeding the cholesterol/fat diet at 40 g for the first 2 weeks, 50 g for 4 weeks, 60 g for final 4 weeks. After 2 week of diet initiation, a chronic endothelial injury was induced in the abdominal aorta and right femoral artery by surgically inserting a sterile, nylon monofilament through the medical saphenous artery of the right leg to the level of the diaphragm. The monofilament was secured and maintained in place for remaining 8 weeks of the study. Animals were randomized on the basis of their total cholesterol levels after 2 week of cholesterol/fat diet. The HMG-CoA reductase inhibitor and the ACAT inhibitor were orally administered both alone and in combination for 8 weeks after surgery.
Femoral artery was photographed for the morphometric analyses by digital camera (Coolpix 990, trade name: product of […].) connected with a computer. The severity of aortic atherosclerosis was estimated as a ratio of surface area of lesion to the intimal surface area of aorta by Photo-retouch software (“Adobe Photoshop 5.0” trade name: product of Adobe Systems Inc.) and the Scion image NIH Imaging Software (“Scion Image 1.61 c MacOs” product of Scion Corporation). (ii) Extracellular Lipid Deposits
Rabbits were anesthetized with intravenous injection of sodium pentobarbital (25 mg/kg) and perfused with saline by using a perfusion apparatus at a constant pressure of 100 mmHg. After perfusion, the aortas were excised, photographed. Analysis of lesional cross-sections on aortas was examined at the right femoral artery. Right femoral artery was fixed in Methanol Carnoy's fixative for at least 24 hours. The segments were embedded in paraffin, and sectioned at 5 μm. Five ribbons of four serilal sections from each segment were cut at 80 μm intervals. A section from each ribbon was treated with Elastica-Masson's stain.
Digital image of each section was collected using a digital camera (Fujix CCD camera system HC-2500: product of Fuji Photo Film Co., Ltd.) attached to Leica microscope at a magnification of 2.5×. The area of each lesional component was extracted using Adobe Photoshop 5.0 (Adobe) for estimation of the quality of the lesions. In sections treated with Elastica-Masson's stain, the region with light green were identified as extracellular matrix (ECM), and extracellular vacuoles and lacunae (white regions) were defined as extracellular lipid deposits (ECD). ECD was measured by average of value dividing area of lesional component by area of lesion using Adobe Photoshop 5.0 and Scion Image 1.61 MacOs.

Experiment [2] relates to F1b hamsters. Nature of the experiment: Lipid lowering action in cholesterol/coconut oil-fed F1b hamsters (serum lipids by an enzyme method). It counts as in vivo, hamster. As to conditions: for Cholesterol concentration TC (total cholesterol) / Atherogenic index (VLDL+LDL cholesterol/HDL cholesterol) / Cholesterol concentration HDL / Cholesterol concentration VLDL + LDL: serum, oral once a day for 7 days, Pravastatin 3 mg/kg, Compound A 30 mg/kg; for Cholesterol concentration TC (total cholesterol): 17 h fast after final dose, control 253.0; for Atherogenic index (VLDL+LDL cholesterol/HDL cholesterol): control 3.0; for Cholesterol concentration HDL: control 63.6; for Cholesterol concentration VLDL + LDL: control 189.4. Here is the method:
Eleven-week-old male F1b hamsters were used in the experiment. The animals were fed in metal cages and allowed free access to food, which contained 0.05% cholesterol and 10% coconut oil, and water. The active agents were administered orally in the form of a suspension in 5% gum arabic solution once a day for 7 days. The animals were fasted for 17 hours after the final administration of active agents at which time blood samples were collected under anesthesia. Serum lipids were measured by an enzyme method. In the table, TC indicates total cholesterol, VLDL indicates very low density lipoprotein, LDL indicates low density lipoprotein, HDL indicates high density lipoprotein and compound A indicates N-(1-octyl-5-carboxymethyl-4,6-dimethylindolin-7-yl)-2,2-dimethylpropanamide sulfate.

Structures are written as SMILES. Where a name gives a salt, the structure may show the parent alone.

Two molecules from US20040092571A1, “Pharmaceutical composition” (SANKYO COMPANY, LIMITED, priority 2000, published 2004) can be followed below.

Turning to `CCCCCCCCN1CCc2c(C)c(CC(=O)O)c(C)c(NC(=O)C(C)(C)C)c21` [Compound A, N-(1-octyl-5-carboxymethyl-4,6-dimethylindolin-7-yl)-2,2-dimethylpropanamide sulfate], in experiment [1], the “Effect on ECD (in words)” value is “reduced”, the “Effect on atheroclerotic area of the femoral lesion (in words)” value was “reduced”, the “The ratio of Atheroclerotic area” value stood at 45.8% and the “ECD (extracellular lipid deposits)” value worked out at 10.7 mm^2. For the same molecule, in experiment [2], the “Cholesterol concentration TC (total cholesterol)” value amounted to 170.9, the “Atherogenic index (VLDL+LDL cholesterol/HDL cholesterol)” value is given as 1.8, the “Cholesterol concentration HDL” value came to 62.0 and the “Cholesterol concentration VLDL + LDL” value is 109.0. In experiment [2] (summary of Table 1), the “Effect on atherogenic index (in words)” value is reported as “lowered”, the “Effect on serum VLDL+LDL cholesterol level (in words)” value was “decreased” and the “Effect on total serum cholesterol level (in words)” value was “decreased”.

As to `CC[C@H](C)C(=O)O[C@H]1C[C@H](O)C=C2C=C[C@H](C)[C@H](CC[C@@H](O)C[C@@H](O)CC(=O)O)[C@H]21` [Pravastatin, (+)-(3R,5R)-3,5-dihydroxy-7-[(1S,2S,6S,8S,8aR)-6-hydroxy-2-methyl-8-[(S)-2-methylbutyryloxy]-1,2,6,7,8,8a-hexahydro-1-napthyl]heptanoic acid, reference compound], in experiment [1], the “Effect on ECD (in words)” value is “no effect”, the “Effect on atheroclerotic area of the femoral lesion (in words)” value is “no effect”, the “The ratio of Atheroclerotic area” value is listed as 58.3% and the “ECD (extracellular lipid deposits)” value was found to be 16.6 mm^2. Moreover, in experiment [2], the “Cholesterol concentration TC (total cholesterol)” value came to 244.0, the “Atherogenic index (VLDL+LDL cholesterol/HDL cholesterol)” value is reported as 2.3, the “Cholesterol concentration HDL” value is listed as 73.3 and the “Cholesterol concentration VLDL + LDL” value turned out to be 170.6.
